Laboratory results reported in patent publication US9845302B2, “Anticancer compounds and process for the preparation thereof” (Council of Scientific and Industrial Research, priority 2013, dated 2017).

System: HL60-HUVEC cell adhesion
Assay: HL60-HUVEC cell adhesion inhibition, 8 point dose dependent assay (TNF-α stimulated, Calcein AM fluorometric)
Type: cell-based
Conditions: Homo sapiens; HUVEC dosed 2 hours with compound, 100 ng/mL TNF-α 4 hours, HL60 co-culture 30 mins
Method: Determination of Cell Adhesion Inhibition
An 8 point dose dependent assay was carried out to assess the IC50's of the test compounds.
10,000 HUVEC cells/well (passage number. 8) was seeded into a 96 well black clear bottom plate and cells were cultured for 4 days at 37° C. After the cell culture, HUVEC's were dosed with test compound and reference compound (peribysin E) at a top concentration of 100 μM (1:3 step down dilution-8 concentrations) and cells were cultured for 2 hours at 37° C. HUVEC's were treated with/without 100 ng/mL of TNF-α further cultured for 4 hours at 37° C. 100,000 HL60 cells/well (passage number. 16) was loaded with Calcein AM dye and co-cultured with HUVECs, and cells were cultured for 30 mins at 37° C. HL60-HUVEC cell adhesion was detected by a fluorometric method using a BMG Polarstar. (IC50=inhibition concentration at 50%). HL60-HUVEC Cell Adhesion-IC50 Assessment of Compound

For `C=C1CO[C@@H](OC)[C@]12C[C@@H]1C=CC[C@@H](C)[C@]1(C)[C@H]2O` (racemic) [Compound 9, (2R,2′R,3′R,3a′S,4′R,7a′R)-2-methoxy-3a′,4′-dimethyl-4-methylene 1′,3′,3a′,4,4′,5,5′,7a′-octahydro-2H-spiro[furan-3,2′-inden]-3′-ol], which IC50 is on record?
The IC50 was 18.7 µM.

With `C=C1CO[C@@H](OC)[C@]12C[C@@H]1[C@@H]3O[C@@H]3C[C@@H](C)[C@]1(C)[C@H]2O` (racemic) [Compound 10, (1a′R,2R,3R,3′R,3a′S,4′R,6a′S,6b′S)-2-methoxy-3′,3a′-dimethyl-4-methylenedecahydro-2H-spiro[furan-3,5′-indeno[4,5-b]oxiren]-4′-ol] as the compound, how does the IC50 read?
The IC50 was 15.8 µM.

Which IC50 does the source give for `C=C1CO[C@@H](OC)[C@]12C[C@@H]1C[C@H](O)C[C@@H](C)[C@]1(C)[C@H]2O` (racemic) [Compound 11a, (1′R,2R,2′R,3a′R,5′R,7′R,7a′S)-2-methoxy-7′,7a′-dimethyl-4-methylene decahydro-2H-spiro[furan-3,2′-indene]-1′,5′-diol] here?
Its IC50 is 10.4 µM.

For `C=C1CO[C@@H](OC)[C@]12C[C@@H]1[C@H](O)CC[C@@H](C)[C@]1(C)[C@H]2O` (racemic) [Compound 11b, (1′R,2R,2′R,3a′S,4′R,7′R,7a′S)-2-methoxy-7′,7a′-dimethyl-4-methylenedecahydro-2H-spiro[furan-3,2′-indene]-1′,4′-diol], which IC50 is on record?
Its IC50 is 4.28 µM.

For `C=C1CO[C@@H](OC)[C@]12C[C@@H]1[C@@H](O)CC[C@@H](C)[C@]1(C)[C@H]2O` (racemic) [Compound 11c, (1′R,2R,2′R,3a′S,4′S,7′R,7a′S)-2-methoxy-7′,7a′-dimethyl-4-methylenedecahydro-2H-spiro[furan-3,2′-indene]-1′,4′-diol], which IC50 is on record?
The IC50 was 13.8 µM.

With `C=C1CO[C@@H](OC)[C@]12C[C@@H]1CCC[C@@H](C)[C@]1(C)[C@H]2O` (racemic) [Compound 20, (1′R,2R,2′R,3a′S,7′R,7a′S)-2-methoxy-7′,7a′-dimethyl-4-methylenedecahydro-2H-spiro[furan-3,2′-inden]-1′-ol] as the compound, how does the IC50 read?
Its IC50 is 11 µM.

With `C=C1CO[C@@H](OC)[C@]12C[C@@H]1C[C@@H](O)C[C@@H](C)[C@]1(C)[C@H]2O` (racemic) [Peribysin E, (1′R,2R,2′R,3a′R,5′S,7′R,7a′S)-2-methoxy-7′,7a′-dimethyl-4-methylenedecahydro-2H-spiro[furan-3,2′-indene]-1′,5′-diol, reference compound] as the compound, how does the IC50 read?
Its IC50 is 6.9 to 12.2 µM.

System: adhesion of leukemia HL-60 cells to human-umbilical-vein endothelial cells (HUVEC)
Assay: not given
Conditions: HL-60 cells to HUVEC; background statement; cited from earlier work

For `C=C1CO[C@@H](OC)[C@]12C[C@@H]1C[C@@H](O)C[C@@H](C)[C@]1(C)[C@H]2O` (racemic) [Peribysin E, (1′R,2R,2′R,3a′R,5′S,7′R,7a′S)-2-methoxy-7′,7a′-dimethyl-4-methylenedecahydro-2H-spiro[furan-3,2′-indene]-1′,5′-diol, reference compound], which “cell adhesion inhibitory activity” value is on record?
Its value is “inhibit adhesion of leukemia HL-60 cells to human-umbilical-vein endothelial cells (HUVEC)”.

For `C=C1CO[C@@H](OC)[C@]12C[C@@H]1C[C@@H](O)C[C@@H](C)[C@]1(C)[C@H]2O` [(−)-peribysin E], which “cell adhesion inhibitory activity” value is on record?
Its value is “more potent activity than the gold standard herbimycin”.
